Among the data in ChEMBL document CHEMBL1909046, “DrugMatrix in vitro pharmacology data” are IC50 and Ki values, retold here.

One assay addresses T1, Androgen receptor (Rattus norvegicus, UniProt P15207).
T1 sequence (P15207 whole entry): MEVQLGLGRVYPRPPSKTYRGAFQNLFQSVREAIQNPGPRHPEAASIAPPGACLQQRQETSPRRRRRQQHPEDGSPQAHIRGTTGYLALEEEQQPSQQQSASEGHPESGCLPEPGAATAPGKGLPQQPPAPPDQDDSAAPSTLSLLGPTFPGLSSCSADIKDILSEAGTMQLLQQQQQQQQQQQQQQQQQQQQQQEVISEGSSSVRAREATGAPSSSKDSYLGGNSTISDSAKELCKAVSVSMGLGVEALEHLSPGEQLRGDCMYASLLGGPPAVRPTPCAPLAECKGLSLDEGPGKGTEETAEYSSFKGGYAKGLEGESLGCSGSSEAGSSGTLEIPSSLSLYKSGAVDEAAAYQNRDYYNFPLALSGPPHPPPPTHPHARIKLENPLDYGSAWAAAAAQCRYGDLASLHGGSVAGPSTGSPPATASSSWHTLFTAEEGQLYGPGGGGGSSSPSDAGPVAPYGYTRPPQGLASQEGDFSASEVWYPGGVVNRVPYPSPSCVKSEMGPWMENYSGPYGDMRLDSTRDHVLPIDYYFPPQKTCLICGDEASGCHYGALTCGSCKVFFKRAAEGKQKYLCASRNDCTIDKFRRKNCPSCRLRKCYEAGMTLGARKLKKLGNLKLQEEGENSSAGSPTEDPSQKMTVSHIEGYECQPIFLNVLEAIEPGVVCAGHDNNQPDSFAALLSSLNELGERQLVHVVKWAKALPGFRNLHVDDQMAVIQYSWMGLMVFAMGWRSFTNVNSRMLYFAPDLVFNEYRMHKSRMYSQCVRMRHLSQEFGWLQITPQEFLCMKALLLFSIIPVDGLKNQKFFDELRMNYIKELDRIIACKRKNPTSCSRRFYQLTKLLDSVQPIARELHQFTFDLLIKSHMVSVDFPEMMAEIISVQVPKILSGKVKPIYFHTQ

The next assay deals with T2, Estrogen receptor (Homo sapiens, UniProt P03372).
T2 sequence (P03372 whole entry): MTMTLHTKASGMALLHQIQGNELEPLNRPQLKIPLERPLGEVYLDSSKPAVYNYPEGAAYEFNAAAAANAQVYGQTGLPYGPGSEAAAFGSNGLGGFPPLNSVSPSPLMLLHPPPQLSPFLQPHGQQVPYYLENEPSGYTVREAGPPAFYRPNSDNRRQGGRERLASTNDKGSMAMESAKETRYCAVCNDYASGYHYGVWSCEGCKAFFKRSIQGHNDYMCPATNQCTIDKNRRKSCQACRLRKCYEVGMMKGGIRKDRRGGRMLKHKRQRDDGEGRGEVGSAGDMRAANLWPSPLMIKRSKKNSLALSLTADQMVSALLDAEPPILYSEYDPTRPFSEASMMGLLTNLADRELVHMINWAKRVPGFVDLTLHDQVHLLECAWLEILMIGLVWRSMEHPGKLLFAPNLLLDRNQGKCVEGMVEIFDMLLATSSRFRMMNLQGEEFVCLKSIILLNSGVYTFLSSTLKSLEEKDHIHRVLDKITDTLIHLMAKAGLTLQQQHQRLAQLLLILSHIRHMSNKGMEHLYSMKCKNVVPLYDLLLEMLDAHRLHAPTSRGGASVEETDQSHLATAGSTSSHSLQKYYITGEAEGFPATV
As to the kind of experiment: biochemical.

For `CCOC(=O)C1=C(C)NC(C)=C(C(=O)OCC)C1c1ccccc1/C=C/C(=O)OC(C)(C)C` [LACIDIPINE], on Androgen receptor, half-maximal inhibition (IC50) was put at 3920 nM and the Ki – broadly, a measure of affinity in units of concentration, obtained from inhibition or displacement – was determined as 2610 nM.
With `C#C[C@]1(O)CC[C@H]2[C@@H]3[C@H](C)CC4=C(CCC(=O)C4)[C@H]3CC[C@@]21C` [TIBOLONE], at Estrogen receptor, the IC50 – broadly, the midpoint of a concentration-inhibition curve – stood at 433 nM and affinity was put at a Ki of 124 nM.
